The source of these data is patent US10611760B2, “Therapeutic compounds as inhibitors of the orexin-1 receptor” (C4X Discovery Limited, priority 2014, dated 2020).

Assay [1] addresses T1, hOX1R (Homo sapiens, UniProt O43613).
T1 sequence (O43613 1-425): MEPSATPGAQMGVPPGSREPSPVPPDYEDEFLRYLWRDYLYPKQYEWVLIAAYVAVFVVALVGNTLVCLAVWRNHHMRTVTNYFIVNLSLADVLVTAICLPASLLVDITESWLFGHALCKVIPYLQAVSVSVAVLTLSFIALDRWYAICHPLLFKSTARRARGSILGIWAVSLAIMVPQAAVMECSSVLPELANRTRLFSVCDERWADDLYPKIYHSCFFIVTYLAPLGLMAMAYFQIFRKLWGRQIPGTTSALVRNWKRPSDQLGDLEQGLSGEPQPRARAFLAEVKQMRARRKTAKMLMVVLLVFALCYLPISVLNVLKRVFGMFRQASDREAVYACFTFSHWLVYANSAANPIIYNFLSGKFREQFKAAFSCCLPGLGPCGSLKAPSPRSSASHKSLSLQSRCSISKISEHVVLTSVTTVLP
In words: Intracellular calcium measurements using division-arrested cells, OX1. It is filed as cell-based. The following applies: agonist orexin A at 2×EC50, * = single experiment, otherwise average of at least two, read-out: pIC50 OX1 (converted). As for the experimental part:
(§1) Intracellular Calcium Measurements Using Division-arrested Cells (Table 1):
(§2) Test compounds are prepared as 10 mM stock solutions in DMSO, then serially diluted in half log concentrations with DMSO followed by dilution with assay buffer (HBSS (Sigma-Aldrich, H8264) containing 20 mM HEPES (Sigma-Aldrich, H4034), 0.1% (w/v) bovine serum albumin and adjusted to pH 7.4) to a top final assay concentration of 10 μM.
(§3) Human OX1 (CT-A474) and human OX2 (CT-A475) receptor-expressing division-arrested cells are plated into 384 well black, clear bottom, cell-bind plates at a seeding density of 10,000 cells/50 μL growth media. The seeded plates are incubated at 37° C. in air supplemented with 5% CO2 for 16 hrs.
(§4) The media is removed and replaced with 30 μL/well of cell loading buffer (a vial of Calcium 5 is solubilized in 22 mL of assay buffer to which a freshly prepared 250 mM solution of probenecid in 1:1 1M NaOH to assay buffer (200 μL) is added) and the cells incubated for 1 hr at 37° C. The serially diluted test compounds (10 μL/well) are added to the plate, which is then incubated for 10 mins and placed in a FlexStation III reader.

Assay [2] concerns the target T2, hOX2R (Homo sapiens, UniProt O43614).
T2 sequence (O43614 1-444): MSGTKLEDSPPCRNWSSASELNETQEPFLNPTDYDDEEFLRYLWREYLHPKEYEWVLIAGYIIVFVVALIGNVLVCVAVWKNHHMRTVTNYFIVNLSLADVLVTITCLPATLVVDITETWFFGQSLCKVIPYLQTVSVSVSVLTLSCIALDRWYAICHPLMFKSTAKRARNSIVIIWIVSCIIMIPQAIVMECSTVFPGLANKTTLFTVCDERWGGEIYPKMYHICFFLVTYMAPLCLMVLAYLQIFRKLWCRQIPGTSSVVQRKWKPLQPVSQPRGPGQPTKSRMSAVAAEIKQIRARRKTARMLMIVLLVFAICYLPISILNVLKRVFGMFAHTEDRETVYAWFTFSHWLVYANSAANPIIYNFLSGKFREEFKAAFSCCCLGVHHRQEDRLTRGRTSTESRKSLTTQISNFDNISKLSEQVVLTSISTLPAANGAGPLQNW
Put plainly: Intracellular calcium measurements using division-arrested cells, OX2. The class given is cell-based. The following applies: agonist orexin B at 2×EC50, * = single experiment, otherwise average of at least two, read-out: pIC50 OX2 (converted). The method, then:
as §1, §2, §3, §4
(In general: A change in cytosolic calcium serves as a functional read-out for many receptors and channels.)

In the case of `CC[C@@H](CNc1ccc(Cl)cn1)N(C)C(=O)c1ccccc1-c1ccccc1` [Example 3, (S)—N-(1-((5-chloropyridin-2-yl)amino)butan-2-yl)-N-methyl-[1,1′-biphenyl]-2-carboxamide], the IC50 in assay [1] is 20 nM; in assay [2], 1000 nM.
Turning to `CC(C)[C@@H](CNc1ccc(Cl)cn1)N(C)C(=O)c1cn(C)c2ccccc12` [Example 50, (S)—N-(1-((5-chloropyridin-2-yl)amino)-3-methylbutan-2-yl)-N,1-dimethyl-1H-indole-3-carboxamide], the IC50 in assay [1] was 631 nM.
Still for that read-out and setting: for `CC(C)[C@@H](COc1nc2ccccc2n1C)N(C)C(=O)c1ccccc1-c1ccccc1` [Example 33, (S)—N-methyl-N-(3-methyl-1-((1-methyl-1H-benzo[d]imidazol-2-yl)oxy)butan-2-yl)-[1,1′-biphenyl]-2-carboxamide] the value was 100 nM.
For the molecule `CC[C@@H](CNc1cnc(C(F)(F)F)cn1)N(C)C(=O)c1cc(Cl)ccc1-n1nccn1` [Example 40, (S)-5-chloro-N-methyl-2-(2H-1,2,3-triazol-2-yl)-N-(1-((5-(trifluoromethyl)pyrazin-2-yl)amino)butan-2-yl)benzamide], the IC50 in assay [1] was 15.8 nM; in assay [2], 2510 nM.
On to `CC(C)C[C@@H](CNc1ccc(Cl)cn1)N(C)C(=O)c1ccccc1-c1ccccc1` [Example 8, (S)—N-(1-((5-chloropyridin-2-yl)amino)-4-methylpentan-2-yl)-N-methyl-[1,1′-biphenyl]-2-carboxamide], for which the IC50 in assay [1] was 794 nM; in assay [2] it was > 10000 nM.
On the same counts, the results for `Cc1cc(C)nc(OC[C@H](C(C)C)N(C)C(=O)c2ccccc2-c2ccccc2)n1` [Example 30, (S)—N-(1-((4,6-dimethylpyrimidin-2-yl)oxy)-3-methylbutan-2-yl)-N-methyl-[1,1′-biphenyl]-2-carboxamide] are 1580 nM and > 5010 nM.
Take `CC[C@@H](CNc1ccc(Cl)cn1)N(C)C(=O)c1cc(C)ccc1N1CCOCC1` [Example 22, (S)—N-(1-((5-chloropyridin-2-yl)amino)butan-2-yl)-N,5-dimethyl-2-morpholinobenzamide]: in assay [2], the IC50 is > 10000 nM.
Turning to `CC(C)[C@@H](CNc1ccc(Cl)cn1)NC(=O)c1ccccc1-c1ccccc1` [Example 4, (S)—N-(1-((5-chloropyridin-2-yl)amino)-3-methylbutan-2-yl)-[1,1′-biphenyl]-2-carboxamide], the IC50 was 158 nM in assay [1] and > 10000 nM in assay [2].
With `CC[C@@H](CNc1ccc(C(F)(F)F)nc1)N(C)C(=O)c1nc(C)ccc1-n1nccn1` [Example 55, (S)—N,6-dimethyl-3-(2H-1,2,3-triazol-2-yl)-N-(1-((6-(trifluoromethyl)pyridin-3-yl)amino)butan-2-yl)picolinamide], the IC50 in assay [1] is 79.4 nM.
As to `CC[C@@H](CNc1ccc(Cl)cn1)NC(=O)c1cc(Cl)ccc1-n1nccn1` [Example 25, (S)-5-chloro-N-(1-((5-chloropyridin-2-yl)amino)butan-2-yl)-2-(2H-1,2,3-triazol-2-yl)benzamide], the IC50 in assay [1] is 631 nM; in assay [2] it was > 10000 nM.
The corresponding values for `CC[C@@H](CNc1ccc(Cl)cn1)N(C)C(=O)c1cc(Cl)ccc1-n1nccn1` [Example 16, (S)-5-chloro-N-(1-((5-chloropyridin-2-yl)amino)butan-2-yl)-N-methyl-2-(2H-1,2,3-triazol-2-yl)benzamide] are 12.6 nM and 1260 nM.
The corresponding values for `CC(C)[C@@H](CNc1nc2ccccc2n1C)N(C)C(=O)c1ccccc1-c1ccccc1` [Example 38, (S)—N-methyl-N-(3-methyl-1-((1-methyl-1H-benzo[d]imidazol-2-yl)amino)butan-2-yl)-[1,1′-biphenyl]-2-carboxamide] are 79.4 nM and > 3980 nM.
With `CC(C)[C@@H](CNc1ccc(Cl)cn1)N(C(=O)c1ccccc1-c1ccccc1)C1CC1` [Example 15, (S)—N-(1-((5-chloropyridin-2-yl)amino)-3-methylbutan-2-yl)-N-cyclopropyl-[1,1′-biphenyl]-2-carboxamide], the IC50 in assay [2] was > 10000 nM.
Turning to `CC[C@@H](CNc1ccc(C(F)(F)F)cn1)N(C)C(=O)c1nc(C)ccc1-n1nccn1` [Example 48, (S)—N,6-dimethyl-3-(2H-1,2,3-triazol-2-yl)-N-(1-((5-(trifluoromethyl)pyridin-2-yl)amino)butan-2-yl)picolinamide], the IC50 in assay [1] was 12.6 nM; in assay [2], 2510 nM.
On the same counts, the results for `CN(C(=O)c1ccccc1-c1ccccc1)[C@H](CNc1ccc(Cl)cn1)C(C)(C)C` [Example 12, (S)—N-(1-((5-chloropyridin-2-yl)amino)-3,3-dimethylbutan-2-yl)-N-methyl-[1,1′-biphenyl]-2-carboxamide] are 1000 nM and > 10000 nM.
Take `CC(C)[C@@H](CNc1ncc2ccccc2n1)N(C)C(=O)c1ccccc1-c1ccccc1` [Example 36, (S)—N-methyl-N-(3-methyl-1-(quinazolin-2-ylamino)butan-2-yl)-[1,1′-biphenyl]-2-carboxamide]: the IC50 in assay [1] is 63.1 nM.
Consider `CC[C@@H](CNc1cccc(C)n1)N(C)C(=O)c1cc(Cl)ccc1-n1nccn1` [Example 53, (S)-5-chloro-N-methyl-N-(1-((6-methylpyridin-2-yl)amino)butan-2-yl)-2-(2H-1,2,3-triazol-2-yl)benzamide], for which the IC50 in assay [1] is 251 nM.
Consider `CC[C@@H](CNc1ccc(Cl)cn1)N(C)C(=O)c1nc(C)ccc1-n1nccn1` [Example 21, (S)—N-(1-((5-chloropyridin-2-yl)amino)butan-2-yl)-N,6-dimethyl-3-(2H-1,2,3-triazol-2-yl)picolinamide], for which the IC50 in assay [1] was 7.94 nM.
Take `Cc1nc(-c2ccccc2)c(C(=O)N[C@H](CNc2ccc(Cl)cn2)CC(C)C)s1` [Example 7, (S)—N-(1-((5-chloropyridin-2-yl)amino)-4-methylpentan-2-yl)-2-methyl-4-phenylthiazole-5-carboxamide]: the IC50 in assay [1] was 1580 nM.
Consider `CC[C@@H](CNc1ccc(Cl)cn1)N(C)C(=O)c1cc(C(F)(F)F)ccc1-n1nccn1` [Example 17, (S)—N-(1-((5-chloropyridin-2-yl)amino)butan-2-yl)-N-methyl-2-(2H-1,2,3-triazol-2-yl)-5-(trifluoromethyl)benzamide], for which the IC50 in assay [1] is 200 nM.
On the same count and under the same terms, as for `CC(C)[C@@H](COc1ncc2ccccc2n1)N(C)C(=O)c1ccccc1-c1ccccc1` [Example 31, (S)—N-methyl-N-(3-methyl-1-(quinazolin-2-yloxy)butan-2-yl)-[1,1′-biphenyl]-2-carboxamide], the figure is 200 nM; as for `Cc1cc(C)nc(NC[C@H](C(C)C)N(C)C(=O)c2ccccc2-c2ccccc2)n1` [Example 37, (S)—N-(1-((4,6-dimethylpyrimidin-2-yl)amino)-3-methylbutan-2-yl)-N-methyl-[1,1′-biphenyl]-2-carboxamide], 79.4 nM; as for `CC(C)[C@@H](COc1nccc(-c2ccccc2)n1)N(C)C(=O)c1ccccc1-c1ccccc1` [Example 32, (S)—N-methyl-N-(3-methyl-1-((4-phenylpyrimidin-2-yl)oxy)butan-2-yl)-[1,1′-biphenyl]-2-carboxamide], 200 nM.
Consider `CC(C)[C@@H](COCc1ccc(F)cc1)N(C)C(=O)c1ccccc1-c1ccccc1` [Example 29, (S)—N-(1-((4-fluorobenzyl)oxy)-3-methylbutan-2-yl)-N-methyl-[1,1′-biphenyl]-2-carboxamide], for which the IC50 in assay [1] is 1580 nM.
Consider `CC[C@@H](CNc1ccc(C(F)(F)F)cn1)N(C)C(=O)c1cc(Cl)ccc1-n1nccn1` [Example 42, (S)-5-chloro-N-methyl-2-(2H-1,2,3-triazol-2-yl)-N-(1-((5-(trifluoromethyl)pyridin-2-yl)amino)butan-2-yl)benzamide], for which the IC50 in assay [2] was 1000 nM.
